Measured values: patent publication US12133924B2, “Compositions and methods for organ specific delivery of nucleic acids” (The Board of Regents of The University of Texas System, priority 2018, dated 2024)

How the values were obtained:
C57BL/6 mice [1] = experiment: In vivo Luc mRNA delivery after IV injection, ex vivo organ luminescence; design: species or system mouse; details: 6 h; for organ of luciferase expression (tissue specific mRNA delivery): IV, 0.1 mg/kg Luc mRNA
Method: Next, to test the ability of these mDLNPs to deliver mRNA in vivo, mice were injected with a dose of 0.1 mg/kg of Luc mRNA in each of the formulations. […] Assuming that luciferase expression was detected only in liver, spleen and lung after IV injection, the percentage of luciferase expressed in each organ can be calculated (FIG. 1C). […] However, the greater the DOTAP percentage, the more luminescence is seen in lung tissues, with close to 100% of luminescence seen in the lung when DOTAP percentage is greater than 80% (FIG. 1C).
C57BL/6 mice with weight of 18-20 g, were IV injected by various Luc mRNA formulations at a dose of 0.1 or 0.05 mg/kg. n=2-4 per group. After 6 h, mice were intraperitoneal (IP) injected with D-Luciferin (150 mg/kg) and imaged by an IVIS Lumina system (Perkin Elmer). For biodistribution, C57BL/6 mice were IV injected with Cy5-Luc mRNA formulations at a dose of 0.5 mg/kg. Ex vivo imaging (Cy5 channel) was performed 6 h post injection.

C57BL/6 mice [2] = experiment: Biodistribution of Cy5-Luc mRNA formulations; assay type: in vivo, mouse; details: IV, 0.5 mg/kg, 6 h
Method: To test the organ biodistributions of specific DOTAP formulations in greater depth, PBS or liver targeting NPs (mDLNP), spleen targeting NPs (DOTAP10) and lung targeting NPs (DOTAP50) were injected into C57BL/6 mice (n=2) at a dose of 0.5 mg/kg Cy5-Luc mRNA (dye labeled mRNA to track RNA LNPs). 6 h post injection, major organs were collected and imaged (FIG. 3A). The organ distribution of formulations was changed by the amount of DOTAP, and accumulation in liver gradually moved to lung with increasing DOTAP percentages, but regardless of DOTAP percentage, there are still NPs present in the liver (FIG. 7, FIG. 8). […] Further, considering the similar size distribution and EE between these formulations, zeta-potential and pKa may play roles in tissue targeting mRNA expression.
Mechanistic experiments were conducted to explore how and why inclusion of extra lipids in defined categories controls mRNA delivery to different organs. It is logical that LNPs that deliver to cells within the lungs should biodistribute (accumulate) in the lungs. Cy5-labeled mRNA was delivered to track the in vivo distribution of 5A2-SC8 LNPs containing SORT lipids with lung (DOTAP quaternary amino lipid), spleen (18PA anionic lipid and DSPC zwitterionic lipid) and liver (DODAP ionizable tertiary amino lipid) tropism (FIGS. 27A & 28). […]

HeLa-Luc cells = experiment: Cellular uptake and uptake mechanism in HeLa-Luc cells; assay type: cell-based; details: pre-incubation 1 h, then 24 nM sgLuc, 30 min
From the text: First, DOTNPs containing Cas9/sgRNA RNPs that were tagged by a green fluorescent EGFP were tracked by confocal microscopy (FIG. 12A). […] Green: EGFP fused Cas9 protein; Blue: nuclei stained with Hoechst 33342. Red arrows indicated the process of DOTNP10 entering into nucleus. (FIG. 12B)
To evaluate this strategy, 5A2-SC8 was selected as the ionizable cationic lipid because 5A2-SC8 LNPs safely deliver short siRNAs/miRNAs and long mRNAs to mice with compromised liver function, including MYC-driven liver cancer (Zhou et al., 2016; Zhang et al., 2018a; Zhang et al., 2018b) or genetic knockout of fumarylacetoacetate hydrolase (FAH) (Cheng et al., 2018). Introduction of a permanently cationic lipid (e.g. DOTAP) into traditional 4-component 5A2-SC8 LNP formulations indeed allowed controlled self-assembly to occur by mixing an ethanol solution of lipids with a PBS solution of RNPs (1/3, v/v). […] Initially using sgRNA targeting reporter Luciferase (sgLuc), the size of LNPs with 10 mole % DOTAP incorporation (5A2-DOT-10: 5A2-SC8/DOPE/Cho1/DMG-PEG/DOTAP=15/15/30/3/7 (mol/mol)) was observed, prepared using PBS buffer were slightly larger than nanoparticles without RNP loading. […]
To examine the uptake mechanism, assays of specific inhibition on endocytosis pathways were evaluated using Hela-Luc cells. […] The cells were then collected and analyzed by flow cytometry. […]

Td-Tomato mice = experiment: sgRNA screening in Td-Tomato mice; assay type: in vivo, mouse; details: mDLNP, Cas9/sgRNA 4/1 wt/wt, total 3 mg/kg IV, day 7
From the text: These sgRNAs are sgTom1, sgTom2 and sgLoxP. […] Considering the weak PAM of sgLoxP (NAG), sgTom1 was finally chosen for further experiments.

Question: For `CCCCCCCCCCCCCC(=O)OC[C@H](COP(=O)(O)O)OC(=O)CCCCCCCCCCCCC` [14PA, 1,2-dimyristoyl-sn-glycero-3-phosphate], which “organ of luciferase expression (tissue specific mRNA delivery)” value (“organ of luciferase expression” for short) (C57BL/6 mice [1]) is on record?
Answer: The value was “exclusively spleen”.

Question: With `CCCCCCCC/C=C\CCCCCCCC(=O)OCC(O)COP(=O)(O)OCC(COC(=O)CCCCCCC/C=C\CCCCCCCC)OC(=O)CCCCCCC/C=C\CCCCCCCC` (stereo not shown) [18BMP, sn-(3-oleoyl-2-hydroxy)-glycerol-1-phospho-sn-3′-(1′,2′-dioleoyl)-glycerol] as the molecule, how does the “organ of luciferase expression” value (C57BL/6 mice [1]) read?
Answer: Its value is “exclusively spleen”.

Question: Which results are given for `CCCCCCCC/C=C\CCCCCCCC(=O)OC[C@H](COP(=O)(O)O)OC(=O)CCCCCCC/C=C\CCCCCCCC` [18PA, 1,2-dioleoyl-sn-glycero-3-phosphate]?
Answer: organ distribution of Cy5-labeled mRNA (C57BL/6 mice [2]): increased uptake into the spleen; organ of luciferase expression (tissue specific mRNA delivery) (C57BL/6 mice [1]): exclusively spleen

Question: What does the source list for `CCCCCCCCCCC(O)CN(CCN1CCN(CCN(CC(O)CCCCCCCCCC)CC(O)CCCCCCCCCC)CC1)CCN(CC(O)CCCCCCCCCC)CC(O)CCCCCCCCCC` (stereo not shown) [C12-200]?
Answer: delivery efficacy compared with original mDLNP formulation (C57BL/6 mice [1]; 0.1 mg/kg, n=2): much better delivery efficacy than original mDLNP formulation; organ of luciferase expression (tissue specific mRNA delivery) (C57BL/6 mice [1]): enhanced liver delivery without any luciferase expression in the lungs

Question: Which results are given for `CCCCCCCCCCCCCCCCCC[N+](C)(C)CCCCCCCCCCCCCCCCCC` [DDAB, dimethyldioctadecylammonium]?
Answer: organ of luciferase signal at 40% SORT lipid (C57BL/6 mice [1]; 0.1 mg/kg): high luciferase signal was observed exclusively in the lungs; organ of luciferase expression (tissue specific mRNA delivery) (C57BL/6 mice [1]): liver to spleen to lung based on SORT lipid percentage

Question: With `CCCCCCCC/C=C\CCCCCCCC(=O)OCC(C[N+](C)(C)CCOP(=O)([O-])OCC)OC(=O)CCCCCCC/C=C\CCCCCCCC` (stereo not shown) [DOCPe, 2-((2,3-bis(oleoyloxy)propyl)dimethylammonio)ethyl ethyl phosphate] as the molecule, how does the “organ of luciferase expression” value (C57BL/6 mice [1]) read?
Answer: The value was “move from liver to spleen”.

Question: With `CCCCCCCC/C=C\CCCCCCCC(=O)OCC(CN(C)C)OC(=O)CCCCCCC/C=C\CCCCCCCC` (stereo not shown) [DODAP, 1,2-dioleoyl-3-dimethylammonium-propane] as the molecule, how does the “mRNA delivery when added to C2 LNPs (no ionizable cationic lipid)” value (C57BL/6 mice [1]; 0.1 mg/kg, n=2) read?
Answer: The value was “failed to enable significant mRNA delivery”.

Question: And the “organ of luciferase expression” value (C57BL/6 mice [1])?
Answer: Its value is “enhanced liver delivery without any luciferase expression in the lungs”.

Question: `CCCCCCCC/C=C\CCCCCCCC(=O)OCC(C[N+](C)(C)C)OC(=O)CCCCCCC/C=C\CCCCCCCC` (stereo not shown) [DOTAP, 1,2-dioleoyl-3-trimethylammonium-propane] was tested. Which “organ distribution of Cy5-labeled mRNA” value (C57BL/6 mice [2]) did it give?
Answer: The value was “progressive increase in lung accumulation”.

Question: And the “mRNA delivery when added to C2 LNPs (no ionizable cationic lipid)” value (C57BL/6 mice [1]; 0.1 mg/kg, n=2)?
Answer: Its value is “failed to enable significant mRNA delivery”.

Question: And the “organ of luciferase expression” value (C57BL/6 mice [1])?
Answer: Its value is “liver to spleen to lung based on SORT lipid percentage”.

Question: How did the “organ of luciferase expression” value (C57BL/6 mice [1]) turn out when `CCCCCCCCCCCCCCCCCC(=O)OC[C@H](COP(=O)([O-])OCC[N+](C)(C)C)OC(=O)CCCCCCCCCCCCCCCCC` [DSPC, 1,2-distearoyl-sn-glycero-3-phosphocholine] was run?
Answer: The value was “move from liver to spleen”.

Question: With `CCCCCCCCCCCCCC(=O)OCC(COP(=O)(OCC)OCC[N+](C)(C)C)OC(=O)CCCCCCCCCCCCC.Cl` (stereo not shown) [EPC, 1,2-dimyristoyl-sn-glycero-3-ethylphosphocholine] as the molecule, how does the “organ of luciferase signal at 40% SORT lipid” value (C57BL/6 mice [1]; 0.1 mg/kg) read?
Answer: The value was “high luciferase signal was observed exclusively in the lungs”.

Question: What about the “organ of luciferase expression” value (C57BL/6 mice [1]) of the same molecule?
Answer: The value was “liver to spleen to lung based on SORT lipid percentage”.

Question: How did the “effect of endocytosis inhibitor on uptake of 5A2-DOT-10 LNPs” value (HeLa-Luc cells) turn out when Methyl-o-cyclodextrin [MβCD] was run?
Answer: Its value is “significantly inhibited”.

Question: Which “induction of TdTomato in liver” value (Td-Tomato mice) does the source give for “sgTom1: sgRNA, AAGTAAAACCTCTACAAATG (SEQ ID NO: 1) (chemically modified sgRNA from Synthego, pattern not given here)” here?
Answer: The value was “more successful at inducing TdTomato than sgTom2”.
